The record followed here is patent US9981916B2 (Genentech, Inc., priority 2013, dated 2018).

In this test the target is T1, RORc ligand binding domain (Homo sapiens, UniProt P51449).
T1 construct: host or cells: E. coli
T1 sequence (P51449 269-508 limits assumed): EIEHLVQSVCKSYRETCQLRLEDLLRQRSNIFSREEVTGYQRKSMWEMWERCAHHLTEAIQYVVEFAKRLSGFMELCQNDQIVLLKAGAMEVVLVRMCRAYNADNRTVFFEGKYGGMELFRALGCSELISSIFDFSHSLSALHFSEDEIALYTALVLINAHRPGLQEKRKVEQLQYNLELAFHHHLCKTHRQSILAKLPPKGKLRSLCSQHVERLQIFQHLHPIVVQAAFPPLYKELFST
The test is described as follows: In vitro RORc ligand binding assay (25-[3H]hydroxycholesterol displacement, filter binding). The following applies: 6 nM 25-[3H]hydroxycholesterol, 0.6 ug/mL RORc receptor, 3 h at 25° C. Put shortly:
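Compounds in 5% DMSO, either dose-response or screened at 1 and 10 uM, competed with 6 nM 25-[3H]hydroxycholesterol for 0.6 ug/mL RORc over 3 h at 25° C (HEPES pH 7.4, NaCl, MgCl2, DTT, BSA buffer). Bound tracer was filter-harvested and counted; nonspecific binding came from 1 uM 25-hydroxycholesterol.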
Broadly, the IC50 is the midpoint of a concentration-inhibition curve. A lower IC50 goes with inhibition by little substance. Consider `CC1(C)[C@@H]2CC[C@@]1(C(=O)Nc1ccccc1S(C)(=O)=O)c1nnc(-c3ccccc3F)cc12` [Example 129, (5S,8S)-3-(2-fluorophenyl)-9,9-dimethyl-N-(2-(methylsulfonyl)phenyl)-5,6,7,8-tetrahydro-5,8-methanocinnoline-8-carboxamide], for which the IC50 was 1790 nM.
The same measure for `CC1(C)[C@@H]2CC[C@@]1(C(=O)NCC(F)F)c1nnc(-c3ccccc3F)cc12` [Example 130, (5S,8S)-N-(2,2-difluoroethyl)-3-(2-fluorophenyl)-9,9-dimethyl-5,6,7,8-tetrahydro-5,8-methanocinnoline-8-carboxamide]: 1120 nM.
The same measure for `CC(C)CNC(=O)[C@]12CC[C@H](c3cc(-c4ccccc4F)nnc31)C2(C)C` [Example 131, (5S,8S)-3-(2-fluorophenyl)-N-isobutyl-9,9-dimethyl-5,6,7,8-tetrahydro-5,8-methanocinnoline-8-carboxamide]: 1330 nM; for `CC1(C)[C@@H]2CC[C@@]1(C(=O)NCC1CC1)c1nnc(-c3ccccc3F)cc12` [Example 132, (5S,8S)-N-(cyclopropylmethyl)-3-(2-fluorophenyl)-9,9-dimethyl-5,6,7,8-tetrahydro-5,8-methanocinnoline-8-carboxamide]: 707 nM; for `CC1(C)[C@@H]2CC[C@@]1(C(=O)NCc1ccc(F)cc1)c1nnc(-c3ccccc3F)cc12` [Example 133, (5S,8S)-N-(4-fluorobenzyl)-3-(2-fluorophenyl)-9,9-dimethyl-5,6,7,8-tetrahydro-5,8-methanocinnoline-8-carboxamide]: 876 nM.
The same measure for `CCNC(=O)[C@]12CC[C@H](c3cc(-c4ccccc4F)nnc31)C2(C)C` [Example 134, (5S,8S)-N-ethyl-3-(2-fluorophenyl)-9,9-dimethyl-5,6,7,8-tetrahydro-5,8-methanocinnoline-8-carboxamide]: 211 nM; for `CC1(C)[C@H]2CC[C@]1(C(=O)N1CC(F)(F)C1)c1nnc(-c3c(F)cccc3F)cc12` [Example 135, (3,3-difluoroazetidin-1-yl)((5R,8R)-3-(2,6-difluorophenyl)-9,9-dimethyl-5,6,7,8-tetrahydro-5,8-methanocinnolin-8-yl)methanone]: 643 nM.
`COC(=O)C1CN(C(=O)[C@@]23CC[C@@H](c4cc(-c5c(F)cccc5F)nnc42)C3(C)C)C1` [Example 136, methyl 1-((5R,8R)-3-(2,6-difluorophenyl)-9,9-dimethyl-5,6,7,8-tetrahydro-5,8-methanocinnoline-8-carbonyl)azetidine-3-carboxylate] yielded an IC50 of 524 nM.
On to `COCC1CN(C(=O)[C@@]23CC[C@@H](c4cc(-c5c(F)cccc5F)nnc42)C3(C)C)C1` [Example 137, ((5R,8R)-3-(2,6-difluorophenyl)-9,9-dimethyl-5,6,7,8-tetrahydro-5,8-methanocinnolin-8-yl)(3-(methoxymethyl)azetidin-1-yl)methanone], for which the IC50 is 182 nM.
Under `CC1(C)[C@H]2CC[C@]1(c1nnc(C(F)F)o1)c1nnc(-c3c(F)cccc3F)cc12` [Example 138, 2-(difluoromethyl)-5-((5R,8R)-3-(2,6-difluorophenyl)-9,9-dimethyl-5,6,7,8-tetrahydro-5,8-methanocinnolin-8-yl)-1,3,4-oxadiazole] stands 170 nM; under `CC1(C)[C@@H]2CC[C@@]1(C(=O)N1CC(F)(F)C1)c1nnc(-c3c(F)cccc3F)cc12` [Example 139, (3,3-difluoroazetidin-1-yl)((5S,8S)-3-(2,6-difluorophenyl)-9,9-dimethyl-5,6,7,8-tetrahydro-5,8-methanocinnolin-8-yl)methanone], 30 nM; under `COCC1CN(C(=O)[C@]23CC[C@H](c4cc(-c5c(F)cccc5F)nnc42)C3(C)C)C1` [Example 140, ((5S,8S)-3-(2,6-difluorophenyl)-9,9-dimethyl-5,6,7,8-tetrahydro-5,8-methanocinnolin-8-yl)(3-(methoxymethyl)azetidin-1-yl)methanone], 19 nM.
In the case of `CC1(C)[C@H]2CC[C@]1(C(=O)N1CCC1)c1nnc(-c3c(F)cccc3F)cc12` [Example 141, azetidin-1-yl((5R,8R)-3-(2,6-difluorophenyl)-9,9-dimethyl-5,6,7,8-tetrahydro-5,8-methanocinnolin-8-yl)methanone], the IC50 turned out to be 608 nM.
Compound `CC1(C)CN(C(=O)[C@@]23CC[C@@H](c4cc(-c5c(F)cccc5F)nnc42)C3(C)C)C1` [Example 142, ((5R,8R)-3-(2,6-difluorophenyl)-9,9-dimethyl-5,6,7,8-tetrahydro-5,8-methanocinnolin-8-yl)(3,3-dimethylazetidin-1-yl)methanone] returned an IC50 of 1420 nM.
Under `Cc1nnc(OC[C@@]23CC[C@@H](c4cc(-c5c(F)cccc5F)nnc42)C3(C)C)o1` [Example 143, 2-(((5R,8R)-3-(2,6-difluorophenyl)-9,9-dimethyl-5,6,7,8-tetrahydro-5,8-methanocinnolin-8-yl)methoxy)-5-methyl-1,3,4-oxadiazole] stands 286 nM; under `Cc1nnc(NC[C@@]23CC[C@@H](c4cc(-c5c(F)cccc5F)nnc42)C3(C)C)o1` [Example 144, N-(((5R,8S)-3-(2,6-difluorophenyl)-9,9-dimethyl-5,6,7,8-tetrahydro-5,8-methanocinnolin-8-yl)methyl)-5-methyl-1,3,4-oxadiazol-2-amine], 1370 nM; under `CC1(C)[C@H]2CC[C@]1(CO)c1nnc(Oc3c(F)cccc3F)cc12` [Example 145, ((5R,8R)-3-(2,6-difluorophenoxy)-9,9-dimethyl-5,6,7,8-tetrahydro-5,8-methanocinnolin-8-yl)methanol], 2000 nM.
The same measure for `Cc1nnc(N(C)C[C@@]23CC[C@@H](c4cc(-c5c(F)cccc5F)nnc42)C3(C)C)o1` [Example 146, N-(((5R,8S)-3-(2,6-difluorophenyl)-9,9-dimethyl-5,6,7,8-tetrahydro-5,8-methanocinnolin-8-yl)methyl)-N,5-dimethyl-1,3,4-oxadiazol-2-amine]: 11 nM; for `CC1(C)[C@H]2CC[C@]1(C(=O)N1CC3CC3C1)c1nnc(-c3c(F)cccc3F)cc12` (stereo partly drawn) [Example 147, 3-azabicyclo[3.1.0]hexan-3-yl((5R,8R)-3-(2,6-difluorophenyl)-9,9-dimethyl-5,6,7,8-tetrahydro-5,8-methanocinnolin-8-yl)methanone]: 8 nM; for `CCN(C[C@@]12CC[C@@H](c3cc(-c4c(F)cccc4F)nnc31)C2(C)C)c1nnc(C)o1` [Example 148, N-(((5R,8S)-3-(2,6-difluorophenyl)-9,9-dimethyl-5,6,7,8-tetrahydro-5,8-methanocinnolin-8-yl)methyl)-N-ethyl-5-methyl-1,3,4-oxadiazol-2-amine]: 19 nM.
Under `COCCN(C[C@@]12CC[C@@H](c3cc(-c4c(F)cccc4F)nnc31)C2(C)C)c1nnc(C)o1` [Example 149, N-(((5R,8S)-3-(2,6-difluorophenyl)-9,9-dimethyl-5,6,7,8-tetrahydro-5,8-methanocinnolin-8-yl)methyl)-N-(2-methoxyethyl)-5-methyl-1,3,4-oxadiazol-2-amine] stands 54 nM; under `Cc1nnc(N(C[C@@]23CC[C@@H](c4cc(-c5c(F)cccc5F)nnc42)C3(C)C)C(C)C)o1` [Example 152, N-(((5R,8S)-3-(2,6-difluorophenyl)-9,9-dimethyl-5,6,7,8-tetrahydro-5,8-methanocinnolin-8-yl)methyl)-N-isopropyl-5-methyl-1,3,4-oxadiazol-2-amine], 19 nM; under `CC1(C)[C@H]2CC[C@]1(c1ccccn1)c1nnc(-c3c(F)cccc3F)cc12` [Example 153], 24 nM.
For the compound `CC1(C)[C@H]2CC[C@]1(c1cccnc1)c1nnc(-c3c(F)cccc3F)cc12` [Example 154, (5R,8S)-3-(2,6-difluorophenyl)-9,9-dimethyl-8-(pyridin-3-yl)-5,6,7,8-tetrahydro-5,8-methanocinnoline], the IC50 was found to be 23 nM.
The same measure for `Cc1nnc(N(CCO)C[C@@]23CC[C@@H](c4cc(-c5c(F)cccc5F)nnc42)C3(C)C)o1` [Example 155, 2-((((5R,8S)-3-(2,6-difluorophenyl)-9,9-dimethyl-5,6,7,8-tetrahydro-5,8-methanocinnolin-8-yl)methyl)(5-methyl-1,3,4-oxadiazol-2-yl)amino)ethanol]: 67 nM; for `CCN(C[C@@]12CC[C@@H](c3cc(-c4c(F)cccc4F)nnc31)C2(C)C)S(C)(=O)=O` [Example 156, N-(((5R,8S)-3-(2,6-difluorophenyl)-9,9-dimethyl-5,6,7,8-tetrahydro-5,8-methanocinnolin-8-yl)methyl)-N-ethylmethanesulfonamide]: 46 nM; for `CCN(C[C@@]12CC[C@@H](c3cc(-c4c(F)cccc4F)nnc31)C2(C)C)C(C)=O` [Example 157, N-(((5R,8S)-3-(2,6-difluorophenyl)-9,9-dimethyl-5,6,7,8-tetrahydro-5,8-methanocinnolin-8-yl)methyl)-N-ethylacetamide]: 19 nM.
Under `CCN(C[C@@]12CC[C@@H](c3cc(-c4c(F)cccc4F)nnc31)C2(C)C)C(=O)c1cc(C)on1` [Example 158, N-(((5R,8S)-3-(2,6-difluorophenyl)-9,9-dimethyl-5,6,7,8-tetrahydro-5,8-methanocinnolin-8-yl)methyl)-N-ethyl-5-methylisoxazole-3-carboxamide] stands 6 nM.
